Assay results published in patent US6355799B1, “Substituted benzene compounds, process for their preparation, and herbicidal and defoliant compositions containing them” (ISK Americas Incorporated, priority 1997, dated 2002).

Columns and labels:
Format in all cases: in vivo
[1] = test system: ivyleaf morningglory (Ipomoea hederacea, IPOHE); assay: Post-emerge test, greenhouse herbicide activity screening; conditions: post-emerge, 14 days after application, rating scale 0-100
Procedure, shortened: (§1)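 Compounds in acetone were track-sprayed at 15–1000 g ai/ha: pre-emergence onto soil sown the previous day, then top-watered to incorporate and later bottom-watered; post-emergence onto 2–3 leaf plants with 0.25% v/v surfactant, bottom-watered only. Ratings on a 0–100 phytotoxicity scale were taken at day 14.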

[2] = test system: lambsquarters (Chenopodium album, CHEAL); assay: as above; conditions: post-emerge, 14 days after application, rating scale 0-100
Procedure, shortened: as §1

[3] = test system: green foxtail (Setaria viridis, SETVI); assay: as above; conditions: post-emerge, 14 days after application, rating scale 0-100
Procedure, shortened: as §1

[4] = test system: barnyardgrass (Echinochloa crus-galli, ECHCG); assay: as above; conditions: post-emerge, 14 days after application, rating scale 0-100
Procedure, shortened: as §1

[5] = test system: common ragweed (Ambrosia artemisizfolia L., AMBEL); assay: as above; conditions: post-emerge, 14 days after application, rating scale 0-100
Procedure, shortened: as §1

[6] = test system: large crabgrass (Digitaria sanguinalis, DIGSA); assay: as above; conditions: post-emerge, 14 days after application, rating scale 0-100
Procedure, shortened: as §1

[7] = test system: redroot pigweed (Amaranthus retroflexus, AMARE); assay: as above; conditions: post-emerge, 14 days after application, rating scale 0-100
Procedure, shortened: as §1

[8] = test system: sicklepod (Cassia obtusifolia, CASOB); assay: as above; conditions: post-emerge, 14 days after application, rating scale 0-100
Procedure, shortened: as §1

[9] = test system: velvetleaf (Abutilon theophrasti, ABUTH); assay: as above; conditions: post-emerge, 14 days after application, rating scale 0-100
Procedure, shortened: as §1

[10] = test system: ivyleaf morningglory (Ipomoea hederacea, IPOHE); assay: Pre-emerge test, greenhouse herbicide activity screening; conditions: pre-emerge, 14 days after application, scale 0-100
Procedure, shortened: (§2)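 Visual ratings on a 0-100 scale (0 no damage, 100 all plants dead) were taken at 14 days after treatment. Rates of 15-1000 g ai/ha in acetone, 187 l/ha, were sprayed onto soil one day after planting (pre-emerge) or onto 2-3 leaf plants with 0.25% v/v surfactant (post-emerge).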

[11] = test system: lambsquarters (Chenopodium album, CHEAL); assay: as above; conditions: pre-emerge, 14 days after application, scale 0-100
Procedure, shortened: as §2

[12] = test system: green foxtail (Setaria viridis, SETVI); assay: as above; conditions: pre-emerge, 14 days after application, scale 0-100
Procedure, shortened: as §2

[13] = test system: johnsongrass (Sorghum halepense, SORHA); assay: as above; conditions: pre-emerge, 14 days after application, scale 0-100
Procedure, shortened: as §2

[14] = test system: barnyardgrass (Echinochloa crus-galli, ECHCG); assay: as above; conditions: pre-emerge, 14 days after application, scale 0-100
Procedure, shortened: as §2

[15] = test system: common ragweed (Ambrosia artemisizfolia L., AMBEL); assay: as above; conditions: pre-emerge, 14 days after application, scale 0-100
Procedure, shortened: as §2

[16] = test system: large crabgrass (Digitaria sanguinalis, DIGSA); assay: as above; conditions: pre-emerge, 14 days after application, scale 0-100
Procedure, shortened: as §2

[17] = test system: sicklepod (Cassia obtusifolia, CASOB); assay: as above; conditions: pre-emerge, 14 days after application, scale 0-100
Procedure, shortened: as §2

[18] = test system: velvetleaf (Abutilon theophrasti, ABUTH); assay: as above; conditions: pre-emerge, 14 days after application, scale 0-100
Procedure, shortened: as §2

[19] = test system: field corn (Zea mays L., var. Dekalb 535, CORN); assay: Post-emerge test, crop safety; conditions: post-emerge, 14 days after application, rating scale 0-100
Procedure, shortened: as §2

[20] = test system: upland rice (Oryza sp., var. Tebonnet, RICE); assay: Post-emerge test, crop safety; conditions: post-emerge, 14 days after application, rating scale 0-100
Procedure, shortened: as §2

[21] = test system: field corn (Zea mays L., var. Dekalb 535, CORN); assay: Pre-emerge test, crop safety; conditions: pre-emerge, 14 days after application, scale 0-100
Procedure, shortened: (§3)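 Applied at 15–1000 g ai/ha from acetone in 187 l/ha spray volume. Post-emergence applications included 0.25% v/v non-ionic surfactant and reached plants sown 8–21 days before. Pre-emergence applications were incorporated by surface watering. Efficacy or crop damage was rated on a 0–100 scale after 14 days.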

[22] = test system: upland rice (Oryza sp., var. Tebonnet, RICE); assay: Pre-emerge test, crop safety; conditions: pre-emerge, 14 days after application, scale 0-100
Procedure, shortened: as §3

[23] = test system: redroot pigweed (Amaranthus retroflexus, AMARE); assay: Pre-emerge test, greenhouse herbicide activity screening; conditions: pre-emerge, 14 days after application, scale 0-100
Procedure, shortened: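 Compounds in acetone were track-sprayed at 187 l/ha, 15–1000 g ai/ha, onto sandy loam pots. Pre-emerge seeds were sown one day before spraying, with surface watering afterwards. Post-emerge plants were at the 2–3 leaf stage and sprayed with 0.25% v/v non-ionic surfactant. Injury was rated 0–100 at 14 days.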

`Cn1c(C(F)(F)F)cc(=O)n(-c2c(F)cc(Cl)cc2NC2CC2)c1=O` [2-147] gave an IPOHE phytotoxicity rating ([1]; 63 g ai/ha) of 100, an IPOHE phytotoxicity rating ([1]; 250 g ai/ha) of 100 and a CHEAL phytotoxicity rating ([2]; 63 g ai/ha) of 100. It also gave a CHEAL phytotoxicity rating ([2]; 250 g ai/ha) of 100, an SETVI phytotoxicity rating ([3]; 63 g ai/ha) of 20 and an SETVI phytotoxicity rating ([3]; 250 g ai/ha) of 40. For the same compound, the ECHCG phytotoxicity rating ([4]; 63 g ai/ha) was 10, the ECHCG phytotoxicity rating ([4]; 250 g ai/ha) was 50 and the AMBEL phytotoxicity rating ([5]; 63 g ai/ha) was 95. For the same compound, the AMBEL phytotoxicity rating ([5]; 250 g ai/ha) was 100, the DIGSA phytotoxicity rating ([6]; 63 g ai/ha) was 20 and the DIGSA phytotoxicity rating ([6]; 250 g ai/ha) was 50. The AMARE phytotoxicity rating ([7]; 63 g ai/ha) was 100, the AMARE phytotoxicity rating ([7]; 250 g ai/ha) was 100 and the CASOB phytotoxicity rating ([8]; 63 g ai/ha) was 80. The CASOB phytotoxicity rating ([8]; 250 g ai/ha) was 95, the ABUTH phytotoxicity rating ([9]; 63 g ai/ha) was 100 and the ABUTH phytotoxicity rating ([9]; 250 g ai/ha) was 100. For the same compound, the “phytotoxicity rating IPOHE” value ([10]; 63 g ai/ha) was 80, the “phytotoxicity rating IPOHE” value ([10]; 250 g ai/ha) was 100 and the “phytotoxicity rating CHEAL” value ([11]; 63 g ai/ha) was 100. For the same compound, the “phytotoxicity rating CHEAL” value ([11]; 250 g ai/ha) was 100, the “phytotoxicity rating SETVI” value ([12]; 63 g ai/ha) was 100 and the “phytotoxicity rating SETVI” value ([12]; 250 g ai/ha) was 100. The “phytotoxicity rating SORHA” value ([13]; 63 g ai/ha) was 90, the “phytotoxicity rating SORHA” value ([13]; 250 g ai/ha) was 100 and the “phytotoxicity rating ECHCG” value ([14]; 63 g ai/ha) was 90. For the same compound, the “phytotoxicity rating ECHCG” value ([14]; 250 g ai/ha) was 100, the “phytotoxicity rating AMBEL” value ([15]; 63 g ai/ha) was 80 and the “phytotoxicity rating AMBEL” value ([15]; 250 g ai/ha) was 100. For the same compound, the “phytotoxicity rating DIGSA” value ([16]; 63 g ai/ha) was 90, the “phytotoxicity rating DIGSA” value ([16]; 250 g ai/ha) was 100 and the “phytotoxicity rating CASOB” value ([17]; 63 g ai/ha) was 40. For the same compound, the “phytotoxicity rating CASOB” value ([17]; 250 g ai/ha) was 100, the “phytotoxicity rating ABUTH” value ([18]; 63 g ai/ha) was 100 and the “phytotoxicity rating ABUTH” value ([18]; 250 g ai/ha) was 100. The “CORN phytotoxicity rating (crop damage)” value ([19]; 63 g ai/ha) was 15, the “CORN phytotoxicity rating (crop damage)” value ([19]; 250 g ai/ha) was 90 and the “RICE phytotoxicity rating (crop damage)” value ([20]; 63 g ai/ha) was 50. For the same compound, the “RICE phytotoxicity rating (crop damage)” value ([20]; 250 g ai/ha) was 75, the “phytotoxicity rating CORN (crop damage)” value ([21]; 63 g ai/ha) was 100 and the “phytotoxicity rating CORN (crop damage)” value ([21]; 250 g ai/ha) was 100. For the same compound, the “phytotoxicity rating RICE (crop damage)” value ([22]; 63 g ai/ha) was 99, the “phytotoxicity rating RICE (crop damage)” value ([22]; 250 g ai/ha) was 100 and the “phytotoxicity rating AMARE” value ([23]; 63 g ai/ha) was 100. The “phytotoxicity rating AMARE” value ([23]; 250 g ai/ha) was 100.
